In PubChem BioAssay AID1918930 (Molecular Pharmacology Branch, DTP, NCI, 2023):

System: 233499-124-R-J3-PDC complex spheroid viability, % test/control
Assay: Anticancer human tumor 233499-124-R-J3-PDC patient-derived colon adenocarcinoma cell line growth inhibition
Details: for IC50: curve of first compound; for viability, T/C: stronger effect = lower value; active = viability on the fitted dose curve at most 10% of control; inactive = the rest
How it was run: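 Multicellular complex spheroids of tumor cells with human endothelial cells (HUVEC) and mesenchymal stem cells; the LSD1 inhibitor iadademstat was combined with standard-of-care or investigational agents. Top concentration at or near clinical Cmax, half-log dilutions; final DMSO ≤0.25%.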

[1] = second compound 0.1 µM, first compound 0.0316 µM
[2] = second compound 0.1 µM, first compound 0.1 µM
[3] = second compound 0.316 µM, first compound 0.0316 µM
[4] = second compound 0.316 µM, first compound 0.1 µM
[5] = second compound 1 µM, first compound 0.0316 µM
[6] = second compound 1 µM, first compound 0.1 µM
[7] = second compound 3.16 µM, first compound 0.0316 µM
[8] = second compound 3.16 µM, first compound 0.1 µM
[9] = second compound 10 µM, first compound 0.0316 µM
[10] = second compound 10 µM, first compound 0.1 µM
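Note: spheroids exposed to agents for one week before readout.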

CC(C)CC(NC(=O)CNC(=O)c1cc(Cl)ccc1Cl)B1OC(=O)CC(CC(=O)O)(C(=O)O)O1 (stereo not given) + NC1CCC(NC2CC2c2ccccc2)CC1
0.00549 µM: IC50 (second compound 0.316 µM)
0.00487 µM: IC50 (second compound 1 µM)
0.00414 µM: IC50 (second compound 3.16 µM)
0.00511 µM: IC50 (second compound 0.1 µM)
active: viability, T/C (second compound 0.1 µM, first compound 0.01 µM) 4.56% | viability, T/C [1] 6.96% | viability, T/C [2] 5.21% | viability, T/C (second compound 0.316 µM, first compound 0.01 µM) 7.64% | viability, T/C [3] 8.46% | viability, T/C [4] 0.08% | viability, T/C (second compound 1 µM, first compound 0.01 µM) 7.01% | viability, T/C [5] 4.17% | viability, T/C [6] 2.6% | viability, T/C (second compound 3.16 µM, first compound 0.01 µM) 6.41% | viability, T/C [7] 0.1% | viability, T/C [8] 3.85% | viability, T/C (second compound 10 µM, first compound 0.01 µM) 6.15% | viability, T/C [9] 0.14% | viability, T/C [10] 0.16%
0.00333 µM: IC50 (second compound 10 µM)
inactive: viability, T/C (second compound 0.1 µM, first compound 0.000316 µM) 104% | viability, T/C (second compound 0.1 µM, first compound 0.001 µM) 90.2% | viability, T/C (second compound 0.1 µM, first compound 0.00316 µM) 81.8% | viability, T/C (second compound 0.316 µM, first compound 0.000316 µM) 109% | viability, T/C (second compound 0.316 µM, first compound 0.001 µM) 96.2% | viability, T/C (second compound 0.316 µM, first compound 0.00316 µM) 88.8% | viability, T/C (second compound 1 µM, first compound 0.000316 µM) 88.7% | viability, T/C (second compound 1 µM, first compound 0.001 µM) 78.1% | viability, T/C (second compound 1 µM, first compound 0.00316 µM) 75.8% | viability, T/C (second compound 3.16 µM, first compound 0.000316 µM) 77.2% | viability, T/C (second compound 3.16 µM, first compound 0.001 µM) 70.2% | viability, T/C (second compound 3.16 µM, first compound 0.00316 µM) 63.4% | viability, T/C (second compound 10 µM, first compound 0.000316 µM) 81.8% | viability, T/C (second compound 10 µM, first compound 0.001 µM) 73.7% | viability, T/C (second compound 10 µM, first compound 0.00316 µM) 52.8%

COc1cc(C2c3cc4c(cc3C(OC3OC5COC(C)OC5C(O)C3O)C3COC(=O)C23)OCO4)cc(OC)c1O (stereo not given) + NC1CCC(NC2CC2c2ccccc2)CC1
> 3 µM: IC50 (second compound 0.1 µM) | IC50 (second compound 0.316 µM) | IC50 (second compound 1 µM) | IC50 (second compound 3.16 µM)
1.29 µM: IC50 (second compound 10 µM)
inactive: viability, T/C (second compound 0.1 µM, first compound 0.00949 µM) 96.6% | viability, T/C (second compound 0.1 µM, first compound 0.03 µM) 102% | viability, T/C (second compound 0.1 µM, first compound 0.0949 µM) 80.8% | viability, T/C (second compound 0.1 µM, first compound 0.3 µM) 88.8% | viability, T/C (second compound 0.1 µM, first compound 0.949 µM) 81% | viability, T/C (second compound 0.1 µM, first compound 3 µM) 75.5% | viability, T/C (second compound 0.316 µM, first compound 0.00949 µM) 119% | viability, T/C (second compound 0.316 µM, first compound 0.03 µM) 115% | viability, T/C (second compound 0.316 µM, first compound 0.0949 µM) 89% | viability, T/C (second compound 0.316 µM, first compound 0.3 µM) 95% | viability, T/C (second compound 0.316 µM, first compound 0.949 µM) 89.9% | viability, T/C (second compound 0.316 µM, first compound 3 µM) 73.4% | viability, T/C (second compound 1 µM, first compound 0.00949 µM) 97.1% | viability, T/C (second compound 1 µM, first compound 0.03 µM) 81.3% | viability, T/C (second compound 1 µM, first compound 0.0949 µM) 80.1% | viability, T/C (second compound 1 µM, first compound 0.3 µM) 77.3% | viability, T/C (second compound 1 µM, first compound 0.949 µM) 65.7% | viability, T/C (second compound 1 µM, first compound 3 µM) 92.2% | viability, T/C (second compound 3.16 µM, first compound 0.00949 µM) 91.5% | viability, T/C (second compound 3.16 µM, first compound 0.03 µM) 83.7% | viability, T/C (second compound 3.16 µM, first compound 0.0949 µM) 81.4% | viability, T/C (second compound 3.16 µM, first compound 0.3 µM) 65.9% | viability, T/C (second compound 3.16 µM, first compound 0.949 µM) 82% | viability, T/C (second compound 3.16 µM, first compound 3 µM) 57.6% | viability, T/C (second compound 10 µM, first compound 0.00949 µM) 97.1% | viability, T/C (second compound 10 µM, first compound 0.03 µM) 77.6% | viability, T/C (second compound 10 µM, first compound 0.0949 µM) 74.7% | viability, T/C (second compound 10 µM, first compound 0.3 µM) 60.5% | viability, T/C (second compound 10 µM, first compound 0.949 µM) 63.7% | viability, T/C (second compound 10 µM, first compound 3 µM) 36.4%

COc1ccc([C@@H](O)c2cc(-c3ncnc4cc(N5CCOCC5)ccc34)c(F)cc2Cl)nn1 + NC1CC1c1ccc(-c2cccc(O)c2)cc1
5.49 µM: IC50 (second compound 1 µM)
1.71 µM: IC50 (second compound 10 µM)
3.62 µM: IC50 (second compound 3.16 µM)
6.67 µM: IC50 (second compound 0.316 µM)
inactive: viability, T/C [1] 97.3% | viability, T/C [2] 93.4% | viability, T/C (second compound 0.1 µM, first compound 0.316 µM) 95.7% | viability, T/C (second compound 0.1 µM, first compound 1 µM) 71.5% | viability, T/C (second compound 0.1 µM, first compound 3.16 µM) 63% | viability, T/C (second compound 0.1 µM, first compound 10 µM) 36.3% | viability, T/C [3] 93.3% | viability, T/C [4] 98.3% | viability, T/C (second compound 0.316 µM, first compound 0.316 µM) 95.5% | viability, T/C (second compound 0.316 µM, first compound 1 µM) 78.6% | viability, T/C (second compound 0.316 µM, first compound 3.16 µM) 78.5% | viability, T/C (second compound 0.316 µM, first compound 10 µM) 36.1% | viability, T/C [5] 91.4% | viability, T/C [6] 80.4% | viability, T/C (second compound 1 µM, first compound 0.316 µM) 79.1% | viability, T/C (second compound 1 µM, first compound 1 µM) 62% | viability, T/C (second compound 1 µM, first compound 3.16 µM) 63.1% | viability, T/C (second compound 1 µM, first compound 10 µM) 40.1% | viability, T/C [7] 92.1% | viability, T/C [8] 95.8% | viability, T/C (second compound 3.16 µM, first compound 0.316 µM) 75.9% | viability, T/C (second compound 3.16 µM, first compound 1 µM) 67.3% | viability, T/C (second compound 3.16 µM, first compound 3.16 µM) 57.7% | viability, T/C (second compound 3.16 µM, first compound 10 µM) 26.9% | viability, T/C [9] 69.5% | viability, T/C [10] 80.2% | viability, T/C (second compound 10 µM, first compound 0.316 µM) 57.7% | viability, T/C (second compound 10 µM, first compound 1 µM) 49.7% | viability, T/C (second compound 10 µM, first compound 3.16 µM) 51.2% | viability, T/C (second compound 10 µM, first compound 10 µM) 21.5%
5.19 µM: IC50 (second compound 0.1 µM)
